Laboratory results published in patent publication US10206394B2, “Herbicidal compounds” (Syngenta Participations AG, priority 2014, dated 2019).
Like-named read-outs stand apart in the source and are kept apart here.

Tests used:
Experiment in all cases: Glasshouse assay for herbicidal activity (pre- and post-emergence), percentage phytotoxicity
Assay type in all cases: in vivo
[1] = test system: Lolium perenne (LOLPE); conditions: Lolium perenne
Summary of the method: (§1)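 Damage was rated visually as percent phytotoxicity, 100% meaning total kill, 20 days after pre-emergence application (made one day post-sowing) or 15 days after post-emergence application (made about 12 days post-sowing). Plants were grown under 16 h light, 65% humidity, warm species 24/18° C, cool 20/16° C.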

[2] = test system: Echinochloa crus-galli (ECHCG); conditions: Echinochloa crus-galli
Summary of the method: as §1

[3] = test system: Alopecurus myosuroides (ALOMY); conditions: Alopecurus myosuroides
Summary of the method: as §1

[4] = test system: Avena fatua (AVEFA); conditions: Avena fatua
Summary of the method: as §1

[5] = post-emergence, 360 h, Rate 250 g/ha, post-emergence, assessed visually 15 DAA, 100%=total damage, 0%=no damage, read-out: Post-emergence herbicidal activity (percentage phytotoxicity) LOLPE POST
[6] = post-emergence, 360 h, Rate 250 g/ha, post-emergence, assessed visually 15 DAA, 100%=total damage, 0%=no damage, read-out: Post-emergence herbicidal activity (percentage phytotoxicity) ECHCG POST
[7] = post-emergence, 360 h, Rate 250 g/ha, post-emergence, assessed visually 15 DAA, 100%=total damage, 0%=no damage, read-out: Post-emergence herbicidal activity (percentage phytotoxicity) ALOMY POST
[8] = post-emergence, 360 h, Rate 250 g/ha, post-emergence, assessed visually 15 DAA, 100%=total damage, 0%=no damage, read-out: Post-emergence herbicidal activity (percentage phytotoxicity) AVEFA POST
[9] = pre-emergence, 480 h, Rate 250 g/ha, pre-emergence, assessed visually 20 DAA, 100%=total damage, 0%=no damage, read-out: Pre-emergence herbicidal activity (percentage phytotoxicity) LOLPE PRE
[10] = pre-emergence, 480 h, Rate 250 g/ha, pre-emergence, assessed visually 20 DAA, 100%=total damage, 0%=no damage, read-out: Pre-emergence herbicidal activity (percentage phytotoxicity) ECHCG PRE
[11] = pre-emergence, 480 h, Rate 250 g/ha, pre-emergence, assessed visually 20 DAA, 100%=total damage, 0%=no damage, read-out: Pre-emergence herbicidal activity (percentage phytotoxicity) ALOMY PRE
[12] = pre-emergence, 480 h, Rate 250 g/ha, pre-emergence, assessed visually 20 DAA, 100%=total damage, 0%=no damage, read-out: Pre-emergence herbicidal activity (percentage phytotoxicity) AVEFA PRE
[13] = post-emergence, 360 h, 250 g/ha, post-emergence, 15 DAA, visual assessment (100%=total damage, 0%=no damage), read-out: Post-emergence herbicidal activity (percentage phytotoxicity) LOLPE POST
[14] = pre-emergence, 480 h, 250 g/ha, pre-emergence, 20 DAA, visual assessment (100%=total damage, 0%=no damage), read-out: Pre-emergence herbicidal activity (percentage phytotoxicity) LOLPE PRE
[15] = post-emergence, 360 h, 250 g/ha, post-emergence, 15 DAA, visual assessment (100%=total damage, 0%=no damage), read-out: Post-emergence herbicidal activity (percentage phytotoxicity) ECHCG POST
[16] = pre-emergence, 480 h, 250 g/ha, pre-emergence, 20 DAA, visual assessment (100%=total damage, 0%=no damage), read-out: Pre-emergence herbicidal activity (percentage phytotoxicity) ECHCG PRE
[17] = post-emergence, 360 h, 250 g/ha, post-emergence, 15 DAA, visual assessment (100%=total damage, 0%=no damage), read-out: Post-emergence herbicidal activity (percentage phytotoxicity) ALOMY POST
[18] = pre-emergence, 480 h, 250 g/ha, pre-emergence, 20 DAA, visual assessment (100%=total damage, 0%=no damage), read-out: Pre-emergence herbicidal activity (percentage phytotoxicity) ALOMY PRE
[19] = post-emergence, 360 h, 250 g/ha, post-emergence, 15 DAA, visual assessment (100%=total damage, 0%=no damage), read-out: Post-emergence herbicidal activity (percentage phytotoxicity) AVEFA POST
[20] = pre-emergence, 480 h, 250 g/ha, pre-emergence, 20 DAA, visual assessment (100%=total damage, 0%=no damage), read-out: Pre-emergence herbicidal activity (percentage phytotoxicity) AVEFA PRE

Cc1ccc(/C=C/C2(NC(=O)CC3CC(=O)C(c4c(C)cc(C)cc4C)C3=O)CC2)cc1 (stereo not shown) [Compound A101]
pest or weed control at 250 g/ha [1, 5]: 40% | pest or weed control at 250 g/ha [2, 6]: 20% | pest or weed control at 250 g/ha [3, 7]: 10% | pest or weed control at 250 g/ha [4, 8]: 0%

C#Cc1cc(C)c(C2C(=O)CC(CC(=O)NC(C)C)C2=O)c(C)c1 (stereo not shown) [Compound A42]
pest or weed control at 250 g/ha [1, 5]: 90% | pest or weed control at 250 g/ha [1, 9]: 100% | pest or weed control at 250 g/ha [2, 6]: 80% | pest or weed control at 250 g/ha [2, 10]: 100% | pest or weed control at 250 g/ha [3, 7]: 100% | pest or weed control at 250 g/ha [3, 11]: 100% | pest or weed control at 250 g/ha [4, 8]: 100% | pest or weed control at 250 g/ha [4, 12]: 100%

Cc1cc(C)c(C2C(=O)CC(CC(=O)NC3CC(F)(F)C3)C2=O)c(C)c1 (stereo not shown) [Compound A185]
pest or weed control at 250 g/ha ([1]; post-emergence, 360 h, post-emergence, 250 g/ha, 15 DAA, visual score (100%=total damage; 0%=no damage), read-out: LOLPE POST herbicidal activity (percentage phytotoxicity)): 70% | pest or weed control at 250 g/ha ([1]; pre-emergence, 480 h, pre-emergence, 250 g/ha, 20 DAA, visual score (100%=total damage; 0%=no damage), read-out: LOLPE PRE herbicidal activity (percentage phytotoxicity)): 70% | pest or weed control at 250 g/ha ([2]; post-emergence, 360 h, post-emergence, 250 g/ha, 15 DAA, visual score (100%=total damage; 0%=no damage), read-out: ECHCG POST herbicidal activity (percentage phytotoxicity)): 70% | pest or weed control at 250 g/ha ([2]; pre-emergence, 480 h, pre-emergence, 250 g/ha, 20 DAA, visual score (100%=total damage; 0%=no damage), read-out: ECHCG PRE herbicidal activity (percentage phytotoxicity)): 70% | pest or weed control at 250 g/ha ([3]; post-emergence, 360 h, post-emergence, 250 g/ha, 15 DAA, visual score (100%=total damage; 0%=no damage), read-out: ALOMY POST herbicidal activity (percentage phytotoxicity)): 80% | pest or weed control at 250 g/ha ([3]; pre-emergence, 480 h, pre-emergence, 250 g/ha, 20 DAA, visual score (100%=total damage; 0%=no damage), read-out: ALOMY PRE herbicidal activity (percentage phytotoxicity)): 80% | pest or weed control at 250 g/ha ([4]; post-emergence, 360 h, post-emergence, 250 g/ha, 15 DAA, visual score (100%=total damage; 0%=no damage), read-out: AVEFA POST herbicidal activity (percentage phytotoxicity)): 80% | pest or weed control at 250 g/ha ([4]; pre-emergence, 480 h, pre-emergence, 250 g/ha, 20 DAA, visual score (100%=total damage; 0%=no damage), read-out: AVEFA PRE herbicidal activity (percentage phytotoxicity)): 60%

Cc1cc(-c2nc(C#N)cs2)cc(C)c1C1C(=O)CC(CC(=O)NC(C)(C)C)C1=O (stereo not shown) [Compound B30]
pest or weed control at 250 g/ha [1, 13]: 30% | pest or weed control at 250 g/ha [1, 14]: 70% | pest or weed control at 250 g/ha [2, 15]: 80% | pest or weed control at 250 g/ha [2, 16]: 70% | pest or weed control at 250 g/ha [3, 17]: 70% | pest or weed control at 250 g/ha [3, 18]: 60% | pest or weed control at 250 g/ha [4, 19]: 90% | pest or weed control at 250 g/ha [4, 20]: 70%

CCNC(=O)CC1CC(=O)C(c2c(C)cc(-c3ccc(Cl)cn3)cc2C)C1=O (stereo not shown) [Compound B306]
pest or weed control at 250 g/ha ([1]; post-emergence, 360 h, POST-emergence, rate 250 g/ha, visual score 15 DAA (100%=total damage, 0%=no damage), read-out: Post-emergence herbicidal activity (percentage phytotoxicity) LOLPE POST): 100% | pest or weed control at 250 g/ha ([1]; pre-emergence, 480 h, PRE-emergence, rate 250 g/ha, visual score 20 DAA (100%=total damage, 0%=no damage), read-out: Pre-emergence herbicidal activity (percentage phytotoxicity) LOLPE PRE): 100% | pest or weed control at 250 g/ha ([2]; post-emergence, 360 h, POST-emergence, rate 250 g/ha, visual score 15 DAA (100%=total damage, 0%=no damage), read-out: Post-emergence herbicidal activity (percentage phytotoxicity) ECHCG POST): 100% | pest or weed control at 250 g/ha ([2]; pre-emergence, 480 h, PRE-emergence, rate 250 g/ha, visual score 20 DAA (100%=total damage, 0%=no damage), read-out: Pre-emergence herbicidal activity (percentage phytotoxicity) ECHCG PRE): 100% | pest or weed control at 250 g/ha ([3]; post-emergence, 360 h, POST-emergence, rate 250 g/ha, visual score 15 DAA (100%=total damage, 0%=no damage), read-out: Post-emergence herbicidal activity (percentage phytotoxicity) ALOMY POST): 100% | pest or weed control at 250 g/ha ([3]; pre-emergence, 480 h, PRE-emergence, rate 250 g/ha, visual score 20 DAA (100%=total damage, 0%=no damage), read-out: Pre-emergence herbicidal activity (percentage phytotoxicity) ALOMY PRE): 100% | pest or weed control at 250 g/ha ([4]; post-emergence, 360 h, POST-emergence, rate 250 g/ha, visual score 15 DAA (100%=total damage, 0%=no damage), read-out: Post-emergence herbicidal activity (percentage phytotoxicity) AVEFA POST): 100% | pest or weed control at 250 g/ha ([4]; pre-emergence, 480 h, PRE-emergence, rate 250 g/ha, visual score 20 DAA (100%=total damage, 0%=no damage), read-out: Pre-emergence herbicidal activity (percentage phytotoxicity) AVEFA PRE): 100%

COCCNC(=O)CC1CC(=O)C(c2c(C)cc(-c3ncc(Cl)cc3F)cc2C)C1=O (stereo not shown) [Compound A47]
pest or weed control at 250 g/ha [1, 5]: 100% | pest or weed control at 250 g/ha [1, 9]: 100% | pest or weed control at 250 g/ha [2, 6]: 100% | pest or weed control at 250 g/ha [2, 10]: 100% | pest or weed control at 250 g/ha [3, 7]: 100% | pest or weed control at 250 g/ha [3, 11]: 100% | pest or weed control at 250 g/ha [4, 8]: 100% | pest or weed control at 250 g/ha [4, 12]: 100%

Cc1cc(Br)cc(C)c1C1C(=O)CC(CC(=O)NCC2CC2)C1=O (stereo not shown) [Compound B122]
pest or weed control at 250 g/ha [1, 13]: 100% | pest or weed control at 250 g/ha [1, 14]: 90% | pest or weed control at 250 g/ha [2, 15]: 100% | pest or weed control at 250 g/ha [2, 16]: 70% | pest or weed control at 250 g/ha [3, 17]: 100% | pest or weed control at 250 g/ha [3, 18]: 80% | pest or weed control at 250 g/ha [4, 19]: 100% | pest or weed control at 250 g/ha [4, 20]: 80%

Cc1cc(-c2ncc(Cl)cc2F)cc(C)c1C1C(=O)CC(CC(=O)NC2CCCC2)C1=O (stereo not shown) [Compound B125]
pest or weed control at 250 g/ha [1, 13]: 100% | pest or weed control at 250 g/ha [1, 14]: 100% | pest or weed control at 250 g/ha [2, 15]: 100% | pest or weed control at 250 g/ha [2, 16]: 100% | pest or weed control at 250 g/ha [3, 17]: 90% | pest or weed control at 250 g/ha [3, 18]: 80% | pest or weed control at 250 g/ha [4, 19]: 100% | pest or weed control at 250 g/ha [4, 20]: 40%

Cc1cc(-c2ncc(F)cc2F)cc(C)c1C1C(=O)CC(CC(=O)NCc2cc(F)cc(F)c2)C1=O (stereo not shown) [Compound B71]
pest or weed control at 250 g/ha [1, 13]: 100% | pest or weed control at 250 g/ha [1, 14]: 90% | pest or weed control at 250 g/ha [2, 15]: 100% | pest or weed control at 250 g/ha [2, 16]: 100% | pest or weed control at 250 g/ha [3, 17]: 100% | pest or weed control at 250 g/ha [3, 18]: 90% | pest or weed control at 250 g/ha [4, 19]: 100% | pest or weed control at 250 g/ha [4, 20]: 90%

Cc1cc(-c2ccc(C(F)(F)F)cn2)cc(C)c1C1C(=O)CC(CC(=O)NCc2cccc(C(F)(F)F)c2)C1=O (stereo not shown) [Compound A153]
pest or weed control at 250 g/ha [1, 5]: 70% | pest or weed control at 250 g/ha [1, 9]: 60% | pest or weed control at 250 g/ha [2, 6]: 90% | pest or weed control at 250 g/ha [2, 10]: 90% | pest or weed control at 250 g/ha [3, 7]: 90% | pest or weed control at 250 g/ha [3, 11]: 30% | pest or weed control at 250 g/ha [4, 8]: 90% | pest or weed control at 250 g/ha [4, 12]: 70%
